Data on 10 compounds can be found in patent publication EP0390762A1, “New bronchospasmolytic compounds and process for their preparation” (priority 1989, dated 1990).

Data set [1] has as its system dyspnotic breathing in histamine. In words: Duration of bronchodilating activity in conscious guinea pigs challenged with aerosolized histamine after tracheal instillation or inhalation. The data set is classed as in vivo. Particulars: for initial potency compared with salmeterol / initial potency compared with terbutaline: conscious guinea pigs, histamine challenge; for delay (in minutes) in the appearance of dyspnotic breathing in histamine 0.5 h after the administration / delay (in minutes) in the appearance of dyspnotic breathing in histamine 6 h after the administration: given intratracheally. As for the experimental part: Concious guinea pigs were used in the study. The compounds according to Examples 1 and 2, salmeterol and terbutaline, were given by inhalation or by tracheal instillation whereafter the animals were challenged in a histamine mist after different time intervals.
The guinea pigs were placed in plastic boxes and the test compounds delivered by continuous flow nebulization during 15 minutes.
The animals were lightly anaesthetized by inhalation of Efrane. The test compounds were instilled by use of a thin cannula to the tracheal bifurcation. Controlled animals were instilled with saline.
After the administrations, according to one of the mentioned routes, the animals were placed in transparent plastic cages and challenged with aerosolized histamine. The mist was generated in a nebulizer from a solution containing 0.5-1.0x10⁻³ mol/l of histamine in 3% glycerol. This concentration produced a defined dyspnotic breathing, appearing in control animals within 2-3 minutes. This phase was usally indicated by observation, sometimes also a "blinded trial" or recorded by use of a strain-gauge belt (see 0.A.T. Olsson in Acta Allergologica 26, 438, 1971). An increasing amount of spasmolytic drug gives then rise to a dose-dependent prolongation of the ability of the animals to resist this histamine spasm. As soon as a dyspnotic breathing was established the guinea pigs were removed from the histamine milieu since the same animals have to be exposed to histamine not only after 30 minutes but also at 3, 6 and 9 hours after drug administration.
In some of the experiments the animals were challenged with methacholine instead of histamine to exclude the eventuality of an antihistaminic effect of the drugs tested.
The amounts instilled produce about equieffective protection (6 to 7 minutes) against a histamine provocation 30 minutes after the administration of the test compound. The degree of protection 6 hours after the instillation of the test compound indicates the duration of the bronchospasmolytic activity.

The test system of data set [2] is histamine-elicited bronchospasm. Kind of data set: Bronchospasmolytic effect (reduction of intratracheal pressure, ITP) in anaesthetized guinea pigs. It is filed as in vivo. Particulars: for dose-related inhibition of the histamine-elicited bronchospasm: after injection as well as after inhalation; for reduction of ITP: 3 minutes before histamine infusion. As for the experimental part: (§1) Guinea pigs of either sex were used in the study. The anaesthesia was produced by intravenous pentobarbital, The trachea was cannulated and the animals articificially ventilated by a constant volume respiratory. The intratracheal pressure (ITP) was measured by a pressure transducer. An increase in ITP, above the basic pressure level, indicating a respiratory spasm, was elicited by histamine infused in a jugular vein during 20 sec. every 7 minutes and in amounts producing a peak-ITP in the range 4-6 kPa. To trace cardiovascular effects from used drugs the blood pressure was recorded from a carotide artery via a pressure transducer. The pulse wave, indicating the rate, was triggering a tachograph recording the heart frequency.
(§2) The test compounds were injected 3 minutes before a histamine infusion and the decrease in percent of the intratracheal pressure (ITP) was taken as a measure of the bronchospasmolytic activity. The influence on heart-rate was evaluated after cumultative injections; a new injection was given when the preceding one had produced a steady state in the rate.
(§3) The test compounds were nebulized and the mist produced was led to the animal through the respirator and tracheal cannula. Inhalation continued for 15 mintues for each concentration of the test compounds. The bronchodilating effect […] was calculated as percent reduction in ITP. The effect on heart-rate was determined after a cumultative increase in the concentrations of the nebulized solutions. Effect measurements were made at steady state, and three different concentrations were used.

Another data set has as its system heart-rate. In words: Heart-stimulating effect (heart-rate) in anaesthetized guinea pigs. It is filed as in vivo. As for the experimental part: as §1, §2, §3
For data set [3] the following is noted: inhalation therapy; cited from earlier work.

`COc1ccc(CNc2cc([C@@H](O)CN[C@@H](C)Cc3ccc4c(c3)OCO4)ccc2O)cc1` (racemic) [(R,S+S,R)]: in data set [1], the “initial potency compared with salmeterol” value is “approximately ten times less than for salmeterol” and the “initial potency compared with terbutaline” value is “about the same as for terbutaline”. For the same compound, in data set [1] (1x10⁻⁸ mol/kg), the “delay (in minutes) in the appearance of dyspnotic breathing in histamine 0.5 h after the administration” value was found to be 7 min and the “delay (in minutes) in the appearance of dyspnotic breathing in histamine 6 h after the administration” value amounted to 6 min. For the same compound, the “dose-related inhibition of the histamine-elicited bronchospasm” value (from here on “dose-related inhibition”) in data set [2] is recorded as “inhibition of the histamine-elicited bronchospasm”. In addition, in data set [2] (injection of 5x10⁻⁹ mol/kg), the “reduction of ITP” value was “about 50 per cent”. In addition, the “effect on heart rate compared with salmeterol” value in the data set with heart-rate (after inhalation) was “more reduced effect on heart rate”. Also, the “relationship between the effect on the respiratory system and heart, compared with salmeterol” value in the data set with heart-rate (when the drugs are injected) was “the same”.
On to `COc1ccc(CNc2cc([C@@H](O)CN[C@H](C)Cc3ccc4c(c3)OCO4)ccc2O)cc1` [(R,R)], for which, in data set [1] (5x10⁻⁸ mol/kg), the “delay (in minutes) in the appearance of dyspnotic breathing in histamine 0.5 h after the administration” value was 7 min and the “delay (in minutes) in the appearance of dyspnotic breathing in histamine 6 h after the administration” value is 3 min.
In the case of `COc1ccc(CNc2cc(C(O)CNC(C)Cc3ccc4c(c3)OCO4)ccc2O)cc1` [(R,R+S,R)], in data set [1] (1x10⁻⁷ mol/kg), the “delay (in minutes) in the appearance of dyspnotic breathing in histamine 0.5 h after the administration” value amounted to 7 min and the “delay (in minutes) in the appearance of dyspnotic breathing in histamine 6 h after the administration” value worked out at 3 min.
Turning to `COc1ccc(CNc2cc([C@@H](O)CN[C@@H](C)Cc3ccc4c(c3)OCO4)ccc2O)cc1` [(R,S), 1-(R)-(4-hydroxy-3-(p-methoxybenzylamino)phenyl)-2-[(1(S)-methyl-2-(3,4-methylenedioxyphenyl)ethyl)amino]ethanol], in data set [1], the “initial potency compared with salmeterol” value is on record as “approximately ten times less than for salmeterol” and the “initial potency compared with terbutaline” value is recorded as “about the same as for terbutaline”. In addition, in data set [1] (5x10⁻⁹ mol/kg), the “delay (in minutes) in the appearance of dyspnotic breathing in histamine 0.5 h after the administration” value was 6 min and the “delay (in minutes) in the appearance of dyspnotic breathing in histamine 6 h after the administration” value is 5 min.
Take `COc1ccc(CNc2cc(C(O)CNC(C)Cc3ccc4c(c3)OCO4)ccc2O)cc1` [(R,S+S,S)]: in data set [1] (1x10⁻⁸ mol/kg), the “delay (in minutes) in the appearance of dyspnotic breathing in histamine 0.5 h after the administration” value came out at 6 min and the “delay (in minutes) in the appearance of dyspnotic breathing in histamine 6 h after the administration” value was found to be 5 min.
Regarding `CC(C)(C)NCC(O)c1cc(O)cc(O)c1` (centres unmarked) [Terbutaline, terbutaline], in data set [1] (1x10⁻⁷ mol/kg), the “delay (in minutes) in the appearance of dyspnotic breathing in histamine 0.5 h after the administration” value came out at 7 min and the “delay (in minutes) in the appearance of dyspnotic breathing in histamine 6 h after the administration” value amounted to 2 min. Further, the “dose-related inhibition” value in data set [2] is reported as “inhibition of the histamine-elicited bronchospasm”. For the same compound, in data set [2] (injection of 1x10⁻⁸ mol/kg), the “reduction of ITP” value was “about 50 per cent”. In addition, in the data set with heart-rate (guinea pig, in vivo), the “effect on heart-rate relative to salmeterol and the compounds of the invention” value is “lies in between”. The “increase of the heart-rate” value in the data set with heart-rate (guinea pig, in vivo, iv) is “about 30 beats/min”. In addition, the duration of activity in data set [3] was 4 to 6 h.
`Cc1ccc(C(=O)Oc2ccc(C(O)CNC(C)(C)C)cc2OC(=O)c2ccc(C)cc2)cc1` (centres unmarked) [bitolterol]: in data set [3], the duration of activity was 4 to 6 h.
As for `CC(Cc1ccc(O)cc1)NCC(O)c1cc(O)cc(O)c1` (centres unmarked) [fenoterol], the duration of activity in data set [3] was 4 to 6 h.
As to `CC(C)(C)NCC(O)c1ccc(O)c(CO)c1` (centres unmarked) [salbutamol], the duration of activity in data set [3] was 4 to 6 h.
On to `OCc1cc(C(O)CNCCCCCCOCCCCc2ccccc2)ccc1O` (centres unmarked) [salmeterol], for which the “duration of activity compared with terbutaline” value in data set [1] (calculated from an equipotent level) was “prolonged”. The “dose-related inhibition” value in data set [2] is recorded as “inhibition of the histamine-elicited bronchospasm”. Also, the “reduction of ITP” value in data set [2] (injection of 5x10⁻¹⁰ mol/kg) is reported as “about 50 per cent”. Also, the “potency compared with the other two drugs (compound of Example 2, terbutaline)” value in data set [2] (when inhaled) was “about five times”; in data set [2] (when injected), “at least ten times higher”. The “increase of the heart-rate” value with heart-rate (guinea pig, in vivo) is 15 beats/min; in the data set on heart-rate (guinea pig, in vivo, iv), “about 30 beats/min”.
